In ChEMBL document CHEMBL1141387, “Molecular-docking-guided design, synthesis, and biologic evaluation of radioiodinated quinazolinone prodrugs” (J Med Chem, 2007) one finds solubility and Activity data, which are given here for three molecules.

Converted amounts (≈) assume the structure as drawn.

A short description of data set [1]: Aqueous solubility by radiotracer analysis method. The format is physicochemical. The note with it: buffer.
Data set [2] is described as follows: PLAP-mediated conversion of prodrug to drug. The format is ADME.
A short description of data set [3]: Solubility in phosphate buffer by radiotracer analysis method. The data set is classed as physicochemical.

By solubility is commonly meant the concentration that dissolves in the medium under given conditions. Low values mean a poorly soluble substance, high ones a readily soluble substance. For the molecule `O=c1[nH]c(-c2ccc(O)cc2O)nc2ccc([127I])cc12`, the solubility in data set [1] is 0.00968 µg/mL (≈ 0.0255 µM). Regarding `N.N.N.N.O=c1[nH]c(-c2ccc(OP(=O)(O)O)cc2OP(=O)(O)O)nc2ccc([125I])cc12`, the result in data set [2] was Active. Regarding `N.N.N.N.O=P(O)(O)Oc1ccc(-c2nc(O)c3cc([127I])ccc3n2)c(OP(=O)(O)O)c1`, the result in data set [2] was Active. Besides, the solubility in data set [3] was determined as 4350 µg/mL.
